Results reported in US12479895B2, “C-terminal CDNF and MANF fragments, pharmaceutical compositions comprising same and uses thereof” (MyNeuroCure Oy, priority 2018, dated 2025).

Experiments:
ER stressed SCG neurons = experiment: Survival of tunicamycin-treated (ER stressed) SCG sympathetic neurons after microinjection; assay type: cell-based, mice; settings: for survived neurons as % compared to neurons grown in the presence of NGF: microinjected into cytoplasm, CDNF (400); for Fold change of survived neurons compared to neurons injected with PBS: data of Table 1 divided by values of PBS
Method: Non-neuronal cells were removed by extensive preplating. Almost pure neurons were cultured in polyornithine/laminin (Sigma)-coated 35-mm plastic dishes in the small-size standard microislands in the Neurobasal medium and B27 supplement (Invitrogen/Gibco) in the presence of 30 ng/ml mouse nerve growth factor (NGF) (Promega) for 5-6 days. NGF was deprived by extensive washing and addition of the function-blocking anti-NGF antibodies (Roche). The neurons were pressure-microinjected with special neuronal microinjection equipment (Hellman et al., 2011; Hamner et al., 2001; Lindholm et al., 2002; Sun et al., 2001; Yu et al., 2003)(Sun et al., 2001; Sun et al., 2003). For the survival assay, all neurons on the microislands were counted in the beginning (initial number) and the end (three days) of the experiment and expressed as % of initial.
Microinjection of the sympathetic neurons was performed as described earlier (Yu, L. Y., Jokitalo, E., Sun, Y. F., Mehlen, P., Lindholm, D., Saarma, M., and Arumae, U. (2003) J Cell Biol. 163, 987-997). Plasmids for CDNF have been described earlier. Briefly, newborn mouse SCG neurons were grown with NGF (Promega) for 5-6 days then the nuclei were microinjected with the expression plasmids for full-length (FL)-CDNF and C-CDNF together with a reporter plasmid for enhanced green fluorescent protein (EGFP), using vector concentration of 10 ng/ul in each experiment. […] For protein microinjection, recombinant full length (FL)-CDNF, C-CDNF proteins in PBS at 200 ng/ul were microinjected directly into the cytoplasm together with fluorescent reporter Dextran Texas Red (MW 70000 Da) (Invitrogen, Molecular Probes) that facilitates identification of the successfully injected neurons. Next day tunicamycin (2 μM) was added, and after 3 days the living fluorescent neurons were counted. Living fluorescent (EGFP-expressing or Dextran Texas Red-containing) neurons were “blindly” counted three days later and expressed as percent of initial living fluorescent neurons counted 2-3 hours after microinjection. The experiments with plasmids were repeated on independent cultures 5 times for plasmid experiment, whereas four independent protein injection experiments were performed. On average, 50-80 neurons were successfully injected per experimental group. The results were expressed as the mean±the SEM. Data of each experimental group was compared with control plasmid PCR3.1 (vector) or PBS (in the protein injection experiments) by one-way ANOVA and post hoc Dunnett's t test. The null hypothesis was rejected at p<0.05.

dopamine neurons = experiment: Survival of TH-positive dopamine neurons in dissociated midbrain floor cultures; assay type: cell-based, mouse; settings: for survived neurons as % compared to neurons grown in the presence of GDNF: 5 days; for Fold change of survived neurons compared to neurons grown without growth factors: data of Table 3 divided by values of no factor
Method: To study the dopamine neurons (Yu et al., 2008; Yu and Arumae, 2008), the midbrain floors were dissected from the ventral mesencephali of 13.5-d-old NMRI strain mouse embryos. Tissues were incubated with 0.5% trypsin (ICN Biomedical), then mechanically dissociated using a large fire-polished Pasteur pipette. The neurons were grown on the poly-L-ornithine-coated (Sigma) 96-well culture plates in DMEM/F12 medium (Invitrogen) containing N2 supplement (Invitrogen) in the presence or absence of GDNF (100 ng/ml) or with CDNF, MANF, C-CDNF and C-MANF polypeptides at different concentrations for five days. Same amount of the neurons were plated to each well at the beginning of the experiments. The cultures without added neurotrophic factors served as the negative control. As the midbrain cultures contain several neuronal types, the cultures were fixed and immunostained with the antibodies to tyrosine hydroxylase (TH) (Millipore), a specific marker for the dopaminergic neurons. Images of each well were scanned by CellInsight™ and immunopositive neurons were counted by CellProfiler and CellProfiler analyst software. Data are expressed as a percentage of GDNF-maintained TH-positive neurons. All experiments were repeated at least three times on the independent cultures. The results were expressed as the mean the SEM and were tested for the significance by either one-way ANOVA and Tukey's post hoc test or by two-tailed Student's t-test. The null hypothesis was rejected at P≤0.05.

[1] = Table 1A (FIG. 14), AVG of exp1-2, tunicamycin 2 μM
[2] = Table 1A (FIG. 14), exp1, tunicamycin 2 μM, counted after 3 days
[3] = Table 1A (FIG. 14), exp2, tunicamycin 2 μM, counted after 3 days
[4] = Table 3A (FIG. 15), AVG, 100 ng/ml
[5] = Table 3A (FIG. 15), exp1, 100 ng/ml
[6] = Table 3A (FIG. 15), exp2, 100 ng/ml
[7] = Table 3A (FIG. 15), exp3, 100 ng/ml

## KYEKTLDLASVDLRKMRVAELKQILHSWGEECRACAEKTDYVNLIQELAP (listed as Homo sapiens) [pep7]
ER stressed SCG neurons; [1]
  survived neurons as % compared to neurons grown in the presence of NGF: 80.76 % NGF
ER stressed SCG neurons; [2]
  survived neurons as % compared to neurons grown in the presence of NGF: 76.67 % NGF
ER stressed SCG neurons; [3]
  survived neurons as % compared to neurons grown in the presence of NGF: 84.85 % NGF
ER stressed SCG neurons; Table 2, AVG
  Fold change of survived neurons compared to neurons injected with PBS: 2.19 Fold to PBS
ER stressed SCG neurons; Table 2, exp1
  Fold change of survived neurons compared to neurons injected with PBS: 2.24 Fold to PBS
ER stressed SCG neurons; Table 2, exp2
  Fold change of survived neurons compared to neurons injected with PBS: 2.14 Fold to PBS
Dopamine neurons; Table 3A (FIG. 15), AVG, 1 ng/ml
  survived neurons as % compared to neurons grown in the presence of GDNF: 70.12 % GDNF
Dopamine neurons; Table 3A (FIG. 15), AVG, 10 ng/ml
  survived neurons as % compared to neurons grown in the presence of GDNF: 76.13 % GDNF
Dopamine neurons; [4]
  survived neurons as % compared to neurons grown in the presence of GDNF: 72.36 % GDNF
Dopamine neurons; Table 3A (FIG. 15), AVG, 1000 ng/ml
  survived neurons as % compared to neurons grown in the presence of GDNF: 79.07 % GDNF
Dopamine neurons; Table 3A (FIG. 15), exp1, 1 ng/ml
  survived neurons as % compared to neurons grown in the presence of GDNF: 67.76 % GDNF
Dopamine neurons; Table 3A (FIG. 15), exp1, 10 ng/ml
  survived neurons as % compared to neurons grown in the presence of GDNF: 63.47 % GDNF
Dopamine neurons; [5]
  survived neurons as % compared to neurons grown in the presence of GDNF: 62.89 % GDNF
Dopamine neurons; Table 3A (FIG. 15), exp1, 1000 ng/ml
  survived neurons as % compared to neurons grown in the presence of GDNF: 64.02 % GDNF
Dopamine neurons; Table 3A (FIG. 15), exp2, 1 ng/ml
  survived neurons as % compared to neurons grown in the presence of GDNF: 73.36 % GDNF
Dopamine neurons; Table 3A (FIG. 15), exp2, 10 ng/ml
  survived neurons as % compared to neurons grown in the presence of GDNF: 83.50 % GDNF
Dopamine neurons; [6]
  survived neurons as % compared to neurons grown in the presence of GDNF: 79.82 % GDNF
Dopamine neurons; Table 3A (FIG. 15), exp2, 1000 ng/ml
  survived neurons as % compared to neurons grown in the presence of GDNF: 86.37 % GDNF
Dopamine neurons; Table 3A (FIG. 15), exp3, 1 ng/ml
  survived neurons as % compared to neurons grown in the presence of GDNF: 69.24 % GDNF
Dopamine neurons; Table 3A (FIG. 15), exp3, 10 ng/ml
  survived neurons as % compared to neurons grown in the presence of GDNF: 81.41 % GDNF
Dopamine neurons; [7]
  survived neurons as % compared to neurons grown in the presence of GDNF: 74.38 % GDNF
Dopamine neurons; Table 3A (FIG. 15), exp3, 1000 ng/ml
  survived neurons as % compared to neurons grown in the presence of GDNF: 86.80 % GDNF
Dopamine neurons; Table 4, AVG, 1 ng/ml
  Fold change of survived neurons compared to neurons grown without growth factors: 1.14 fold
Dopamine neurons; Table 4, AVG, 10 ng/ml
  Fold change of survived neurons compared to neurons grown without growth factors: 1.23 fold
Dopamine neurons; Table 4, AVG, 100 ng/ml
  Fold change of survived neurons compared to neurons grown without growth factors: 1.17 fold
Dopamine neurons; Table 4, AVG, 1000 ng/ml
  Fold change of survived neurons compared to neurons grown without growth factors: 1.28 fold
Dopamine neurons; Table 4, exp1, 1 ng/ml
  Fold change of survived neurons compared to neurons grown without growth factors: 1.19 fold
Dopamine neurons; Table 4, exp1, 10 ng/ml
  Fold change of survived neurons compared to neurons grown without growth factors: 1.11 fold
Dopamine neurons; Table 4, exp1, 100 ng/ml
  Fold change of survived neurons compared to neurons grown without growth factors: 1.10 fold
Dopamine neurons; Table 4, exp1, 1000 ng/ml
  Fold change of survived neurons compared to neurons grown without growth factors: 1.12 fold
Dopamine neurons; Table 4, exp2, 1 ng/ml
  Fold change of survived neurons compared to neurons grown without growth factors: 1.16 fold
Dopamine neurons; Table 4, exp2, 10 ng/ml
  Fold change of survived neurons compared to neurons grown without growth factors: 1.32 fold
Dopamine neurons; Table 4, exp2, 100 ng/ml
  Fold change of survived neurons compared to neurons grown without growth factors: 1.27 fold
Dopamine neurons; Table 4, exp2, 1000 ng/ml
  Fold change of survived neurons compared to neurons grown without growth factors: 1.37 fold
Dopamine neurons; Table 4, exp3, 1 ng/ml
  Fold change of survived neurons compared to neurons grown without growth factors: 1.07 fold
Dopamine neurons; Table 4, exp3, 10 ng/ml
  Fold change of survived neurons compared to neurons grown without growth factors: 1.26 fold
Dopamine neurons; Table 4, exp3, 100 ng/ml
  Fold change of survived neurons compared to neurons grown without growth factors: 1.15 fold
Dopamine neurons; Table 4, exp3, 1000 ng/ml
  Fold change of survived neurons compared to neurons grown without growth factors: 1.34 fold

## cerebral dopamine neurotrophic factor [CDNF]
ER stressed SCG neurons; [1]
  survived neurons as % compared to neurons grown in the presence of NGF: 88.04 % NGF
ER stressed SCG neurons; [2]
  survived neurons as % compared to neurons grown in the presence of NGF: 85.71 % NGF
ER stressed SCG neurons; [3]
  survived neurons as % compared to neurons grown in the presence of NGF: 90.36 % NGF
ER stressed SCG neurons; Table 1B (FIG. 16), exp1, tunicamycin 2 μM, counted after 3 days
  survived neurons as % compared to neurons grown in the presence of NGF: 86.00 % NGF
ER stressed SCG neurons; Table 1B (FIG. 16), exp2, tunicamycin 2 μM, counted after 3 days
  survived neurons as % compared to neurons grown in the presence of NGF: 71.23 % NGF
ER stressed SCG neurons; Table 1B (FIG. 16), exp3, tunicamycin 2 μM, counted after 3 days
  survived neurons as % compared to neurons grown in the presence of NGF: 83.33 % NGF
ER stressed SCG neurons; expressed from microinjected plasmids, tunicamycin 2 μM, living fluorescent neurons counted after three days
  rescue of ER stressed SCG sympathetic neurons (result in words): rescue
ER stressed SCG neurons; protein or peptide microinjected into the cytoplasm, tunicamycin 2 μM, living fluorescent neurons counted after 3 days
  rescue of ER stressed SCG neurons (result in words): rescue

B1: glial cell line-derived neurotrophic factor (protein, UniProt P39905 78-211, looked up)
Glial cell line-derived …: SPDKQMAVLPRRERNRQAAAANPENSRGKGRRGQRGKNRGCVLTAIHLNVTDLGLGYETKEELIFRYCSGSCDAAETTYDKILKNLSRNRRLVSDKVGQACCRPIAFDDDLSFLDDNLVYHILRKHSAKRCGCI
notes: Positive control neurotrophic factor, 100 ng/ml
Dopamine neurons; [4]
  survived neurons as % compared to neurons grown in the presence of GDNF: 100 % GDNF
Dopamine neurons; [5]
  survived neurons as % compared to neurons grown in the presence of GDNF: 100 % GDNF
Dopamine neurons; [6]
  survived neurons as % compared to neurons grown in the presence of GDNF: 100 % GDNF
Dopamine neurons; [7]
  survived neurons as % compared to neurons grown in the presence of GDNF: 100 % GDNF
Dopamine neurons; Table 3B (FIG. 17), AVG, 100 ng/ml
  survived neurons as % compared to neurons grown in the presence of GDNF: 100 % GDNF
